Molecular target: T1, Human serum albumin (HSA) (Homo sapiens, UniProt P02768)
T1 construct: gene ALB
Experiment: intrinsic fluorescence quenching (Stern-Volmer, Klotz Ka), dansyl amino acid marker displacement, far UV-CD
Assay type: binding
Conditions: read-out: λex 275 nm / Ka [mol^-1.L] ± SD ^1

T1 sequence (P02768 25-609): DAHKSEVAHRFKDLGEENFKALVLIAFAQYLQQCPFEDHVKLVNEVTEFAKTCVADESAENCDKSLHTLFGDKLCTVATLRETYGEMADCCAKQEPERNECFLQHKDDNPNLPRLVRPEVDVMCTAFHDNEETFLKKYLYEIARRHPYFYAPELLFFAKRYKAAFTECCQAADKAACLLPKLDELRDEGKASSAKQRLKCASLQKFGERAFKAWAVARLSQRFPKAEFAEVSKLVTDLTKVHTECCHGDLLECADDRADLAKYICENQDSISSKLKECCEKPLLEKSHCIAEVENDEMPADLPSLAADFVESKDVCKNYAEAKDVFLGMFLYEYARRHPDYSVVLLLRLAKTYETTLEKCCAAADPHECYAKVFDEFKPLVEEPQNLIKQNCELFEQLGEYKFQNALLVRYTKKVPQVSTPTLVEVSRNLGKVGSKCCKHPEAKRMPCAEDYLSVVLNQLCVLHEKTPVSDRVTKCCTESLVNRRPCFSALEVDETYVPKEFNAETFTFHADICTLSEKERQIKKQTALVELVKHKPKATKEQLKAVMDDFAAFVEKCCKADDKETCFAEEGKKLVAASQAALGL

Kd: 19.1 µM
Compound: c1cnc(N2c3ccncc3Sc3ncccc32)nc1 [10-Pyr-3,6-DAPT, 10-(2′-pyrimidyl)-3,6-diazaphenothiazine]
